Results on 14 compounds are retold here after PMC12467433, “Isoniazid-Derived Hydrazones Featuring Piperazine/Piperidine Rings: Design, Synthesis, and Investigation of Antitubercular Activity” (Biomolecules, 2025).

Each structure is given as a SMILES string. In brackets after ≈: the same amount, converted by molar mass. Where two headings read alike, the source gives them in different places.

The subject of one series is Mtb H37Rv. Nature of the series: Microplate Alamar Blue Assay (MABA), Mtb H37Rv. To be noted: for MIC: MABA, one-week incubation. In kind it is cell-based, Mycobacterium tuberculosis.
For another series, the target named is T1, InhA (Mycobacterium tuberculosis, UniProt P9WGR1).
T1 construct: made in house
Nature of the series: InhA inhibition (NADH oxidation at 340 nm, DDCoA substrate). In kind it is biochemical. To be noted: for inhibition at 50 µM: at 50 μM concentration, NI: No inhibition.

The nature of series [1]: MTT cytotoxicity assay, HEK 293. In kind it is cell-based. Conditions: human, HEK 293 cells, HEK 293, MTT, triplicate, read-out: Toxicity IC50. The source says: (§1) 2.2.2. Assay for Host Cytotoxicity Determination
(§2) The MTT (3-(4,5-dimethylthiazol-2-yl)-2,5-diphenyltetrazolium bromide) assay was applied to determine the cytotoxicity of the synthesized molecules against Human Embryonic Kidney cells (HEK 293) and adenocarcinomic human alveolar basal epithelial cells (A549) cell lines, obtained from the American Type Culture Collection (ATCC) with the accession numbers ATCC CRL-1573 and ATCC CCL-185, respectively. […] A vehicle control containing 1% DMSO in culture medium without any compound was included to account for any solvent-related effects. Cells were seeded at a density of 1 × 10^4 cells per well in a sterile 96-well microtiter plate and incubated for 24 h to allow attachment. Following this, the compounds were added in ten-fold serial dilutions ranging from 100 μM to 0.001 μM, and the plates were incubated for 48 h at 37 °C with 5% CO2.
(§3) After incubation, the medium was removed and replaced with 10 μL of MTT solution (5 mg/mL) in each well, followed by a 3 h incubation under the same conditions. The MTT reagent was then discarded, and 100 μL of DMSO was added to each well to solubilize the formazan crystals. Absorbance was measured at 580 nm using a Thermo Scientific Varioskan LUX microplate reader, with blanks subtracted from each value. All experiments were performed in three independent biological replicates, for every concentration tested. The IC50 values were calculated using GraphPad Prism 10.6.0 [28, 29].

A short description of series [2]: MTT cytotoxicity assay, A549. In kind it is cell-based. Conditions: human, A549 cells, triplicate, read-out: Toxicity IC50.
From the text: as §1, §2, §3
A general note: Tetrazolium dyes change colour on reduction, which living cells bring about.

The mark [3] stands for this setting: Mycobacterium tuberculosis, H37RV, 168 h.

For orientation: MIC50 means the lowest concentration that inhibits either 50% of growth or 50% of the strains tested, depending on the study. Higher therefore signals weaker potency. By MIC is commonly meant the least concentration at which growth counts as inhibited. What is called inhibition is how much of the control response was suppressed. High values mean a response far below the control, low ones a response near the control. In general, IC50 refers to the midpoint of a concentration-inhibition curve.

T1 sequence (P9WGR1 whole entry, looked up): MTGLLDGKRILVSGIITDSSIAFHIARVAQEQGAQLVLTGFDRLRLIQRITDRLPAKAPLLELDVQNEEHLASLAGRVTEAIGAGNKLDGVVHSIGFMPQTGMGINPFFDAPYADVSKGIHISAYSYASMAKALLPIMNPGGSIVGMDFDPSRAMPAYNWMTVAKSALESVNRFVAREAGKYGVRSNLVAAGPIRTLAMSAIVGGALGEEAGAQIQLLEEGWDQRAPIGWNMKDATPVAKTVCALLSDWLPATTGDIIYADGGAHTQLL

In the series with Mtb H37Rv (Mycobacterium tuberculosis), `NNC(=O)c1ccncc1` [INH, isonicotinic acid hydrazide, reference compound] came in with an MIC50 of 0.23 ± 0.04 µM (≈ 0.0315 µg/mL). This compound came in with a minimal inhibitory concentration (MIC) against Mtb H37Rv (setting [3]) of 0.39 µM (≈ 0.0535 µg/mL).
Regarding `O=C(NN=Cc1ccc(N2CCN(c3ccccc3)CC2)cc1)c1ccncc1` [IP1, N′-(4-(4-Phenylpiperazin-1-yl)benzylidene)isonicotinohydrazide], the inhibition at 50 µM at InhA is less than 10%. In the series on Mtb H37Rv (setting [3]), this compound had an MIC of 50 µM (≈ 19.3 µg/mL).
On the same counts, the results for `O=C(NN=Cc1ccc(N2CCN(c3ccc(C(F)(F)F)cc3)CC2)cc1)c1ccncc1` [IP6, N′-(4-(4-(4-(Trifluoromethyl)phenyl)piperazin-1-yl)benzylidene)isonicotinohydrazide] are 37% and 12.5 µM (≈ 5.67 µg/mL).
`O=C(NN=Cc1ccc(N2CCN(c3ccc(Cl)cc3)CC2)cc1)c1ccncc1` [IP3, N′-(4-(4-(4-Chlorophenyl)piperazin-1-yl)benzylidene)isonicotinohydrazide]: on InhA, the inhibition at 50 µM is 21%. The compound also returned a minimal inhibitory concentration (MIC) with Mtb H37Rv (setting [3]) of 50 µM (≈ 21 µg/mL).
On the same counts, the results for `O=C(NN=Cc1ccc(N2CCN(c3ccc(Br)cc3)CC2)cc1)c1ccncc1` [IP4, N′-(4-(4-(4-Bromophenyl)piperazin-1-yl)benzylidene)isonicotinohydrazide] are less than 10% and 100 µM (≈ 46.4 µg/mL).
For the compound `O=C(NN=Cc1ccc(N2CCN(c3ccccc3F)CC2)cc1)c1ccncc1` [IP2, N′-(4-(4-(2-Fluorophenyl)piperazin-1-yl)benzylidene)isonicotinohydrazide], the inhibition at 50 µM against InhA came out at 19%. Moreover, the MIC with Mtb H37Rv and in the series with Mtb H37Rv (setting [3]) was greater than 100 µM in each case.
Regarding `O=C(NN=Cc1ccc(N2CCN(c3ncccn3)CC2)cc1)c1ccncc1` [IP9, N′-(4-(4-(Pyrimidin-2-yl)piperazin-1-yl)benzylidene)isonicotinohydrazide], the inhibition at 50 µM against InhA is less than 10%. The 50% inhibitory concentration (IC50) at 48 h in series [1] and in series [2] was greater than 100 µM throughout. In the series with Mtb H37Rv (Mycobacterium tuberculosis), this compound gave an MIC50 of 0.79 ± 0.23 µM (≈ 0.306 µg/mL). Moreover, in the series with Mtb H37Rv (setting [3]), the minimal inhibitory concentration (MIC) is no more than 0.78 µM.
On to `O=C(NN=Cc1ccc(N2CCN(c3ccccn3)CC2)cc1)c1ccncc1` [IP8, N′-(4-(4-(Pyridin-2-yl)piperazin-1-yl)benzylidene)isonicotinohydrazide], for which, at InhA, the inhibition at 50 µM was less than 10%. Also, the 50% inhibitory concentration (IC50) at 48 h in series [1] and in series [2] was greater than 100 µM in each case. Further, the MIC50 in the series on Mtb H37Rv (Mycobacterium tuberculosis) was 0.31 ± 0.21 µM (≈ 0.12 µg/mL). For the same compound, the MIC with Mtb H37Rv (setting [3]) was no more than 0.78 µM.
Compound `COc1ccc(N2CCN(c3ccc(C=NNC(=O)c4ccncc4)cc3)CC2)cc1` [IP7, N′-(4-(4-(4-Methoxyphenyl)piperazin-1-yl)benzylidene)isonicotinohydrazide] displayed an inhibition at 50 µM against InhA of 10%. For the same compound, in the series on Mtb H37Rv (Mycobacterium tuberculosis), the MIC50 is 0.74 ± 0.1 µM (≈ 0.307 µg/mL). In the series on Mtb H37Rv (setting [3]), the minimal inhibitory concentration (MIC) was no more than 0.78 µM.
`Cc1ccc(N2CCN(c3ccc(C=NNC(=O)c4ccncc4)cc3)CC2)c(C)c1` [IP5, N′-(4-(4-(2,4-Dimethylphenyl)piperazin-1-yl)benzylidene)isonicotinohydrazide] gave an inhibition at 50 µM on InhA of 16%. Moreover, the minimum inhibitory concentration (MIC) with Mtb H37Rv (setting [3]) amounted to 50 µM (≈ 20.7 µg/mL).
On InhA, `CN1CCN(c2ccc(C=NNC(=O)c3ccncc3)cc2)CC1` [IP10, N′-(4-(4-Methylpiperazin-1-yl)benzylidene)isonicotinohydrazide] displayed an inhibition at 50 µM of 30%. In addition, the IC50 at 48 h in series [1] and in series [2] was greater than 100 µM throughout. Further, in the series on Mtb H37Rv (Mycobacterium tuberculosis), the MIC50 amounted to 0.31 ± 0.04 µM (≈ 0.1 µg/mL). The compound further had an MIC in the series on Mtb H37Rv (setting [3]) of no more than 0.78 µM.
Compound `CCOC(=O)C1CCN(c2ccc(C=NNC(=O)c3ccncc3)cc2)CC1` [IP12, Ethyl 1-(4-((2-isonicotinoylhydrazono)methyl)phenyl)piperidine-4-carboxylate] displayed an inhibition at 50 µM at InhA of 17%. The IC50 at 48 h in series [1] and in series [2] was greater than 100 µM each time. Also, in the series with Mtb H37Rv (Mycobacterium tuberculosis), the MIC50 was determined as 0.47 ± 0.05 µM (≈ 0.179 µg/mL). In the series with Mtb H37Rv (setting [3]), this compound yielded an MIC of no more than 0.78 µM.
In turn, `NC(=O)C1CCN(c2ccc(C=NNC(=O)c3ccncc3)cc2)CC1` [IP13, 1-(4-((2-Isonicotinoylhydrazono)methyl)phenyl)piperidine-4-carboxamide] registered an inhibition at 50 µM against InhA of less than 10%. Moreover, the half-inhibitory concentration (IC50) at 48 h in series [1] and in series [2] was greater than 100 µM each time. Further, the MIC50 in the series on Mtb H37Rv (Mycobacterium tuberculosis) stood at 0.53 ± 0.24 µM (≈ 0.186 µg/mL). This compound registered a minimum inhibitory concentration (MIC) with Mtb H37Rv (setting [3]) of no more than 0.78 µM.
For the compound `O=C(NN=Cc1ccc(N2CCN(C3CCCCC3)CC2)cc1)c1ccncc1` [IP11, N′-(4-(4-Cyclohexylpiperazin-1-yl)benzylidene)isonicotinohydrazide], testing at 50 µM at InhA gave an inhibition of 81%. On InhA (read-out: IC50 against InhA enzyme), the IC50 is 26.4 ± 3.97 µM. Moreover, the IC50 at 48 h in series [1] and in series [2] was greater than 100 µM in each case. In addition, the values for the MIC50 in the series with Mtb H37Rv and with Mtb H37Rv (Mycobacterium tuberculosis) were 0.29 µM (≈ 0.114 µg/mL) and 0.29 ± 0.05 µM (≈ 0.114 µg/mL), respectively. Moreover, the MIC with Mtb H37Rv (setting [3]) was no more than 0.78 µM.
